# PubChem BioAssay (NCI)
#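 Results reflect a 48-hour exposure of cells in 96-well plates to compound at five concentrations. GI50 = concentration required for 50% inhibition of growth. At the TGI there is no net growth.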
# Legend:
# Assay in all cases: NCI tumour cell line growth inhibition, 48 h
# UACC-257 melanoma = system: UACC-257 melanoma
# SK-MEL-2 melanoma = system: SK-MEL-2 melanoma
# SW-620 colon = system: SW-620 colon
# U251 CNS = system: U251 CNS
# A549 NSCLC = system: A549 NSCLC
# OVCAR-5 ovarian = system: OVCAR-5 ovarian
# NCI-H23 lung = system: NCI-H23 lung
# COLO 205 colon = system: COLO 205 colon
# 786-0 renal = system: 786-0 renal
# HT29 colon = system: HT29 colon
Compound,TGI (UACC-257 melanoma) [µM],TGI (SK-MEL-2 melanoma) [µM],TGI (SW-620 colon) [µM],TGI (U251 CNS) [µM],TGI (A549 NSCLC) [µM],TGI (OVCAR-5 ovarian) [µM],TGI (NCI-H23 lung) [µM],TGI (COLO 205 colon) [µM],TGI (786-0 renal) [µM],TGI (HT29 colon) [µM],GI50 (UACC-257 melanoma) [µM],GI50 (COLO 205 colon) [µM],GI50 (SW-620 colon) [µM],GI50 (OVCAR-5 ovarian) [µM],GI50 (NCI-H23 lung) [µM],GI50 (SK-MEL-2 melanoma) [µM],GI50 (U251 CNS) [µM],GI50 (A549 NSCLC) [µM],GI50 (HT29 colon) [µM]
Cc1c(C#N)c2nnn(C)c(=O)n2c1-c1ccccc1,> 100,> 100,> 100,> 100,> 100,> 100,> 100,–,–,–,–,–,–,–,–,–,–,–,–
Fc1c(F)c(C(F)(F)F)c(F)c(F)c1N/N=C\c1c[nH]c2ccccc12,14.3,8.81,12.5,12.8,12,14.3,16.4,2.71,14.5,6.46,–,–,–,–,–,–,–,–,–
CN(C)c1ccc(/C=C/C=C\C2=CC(=C\C=C/C=C3C=CC(=[N+](C)C)C=C3)/Sc3ccccc32)cc1,> 100,> 100,> 100,–,> 100,> 100,–,78.3,> 100,> 100,–,–,–,–,–,–,–,–,–
COc1cc2c(/C=C3/C(=O)Nc4ccc(Cl)cc43)c(Cl)n(Cc3ccccc3)c2cc1C,> 100,34.9,> 100,–,> 100,7.06,7.46,6.36,6.41,> 100,–,–,–,–,–,–,–,–,–
COc1ccc(-c2ccc(-c3ccc(C(=N)N)nc3)s2)cc1,3.51,–,1.7,–,–,3.11,3.46,3.92,–,–,1.8,1.89,0.43,1.67,1.84,–,–,–,–
CC(=O)OCC(=O)[C@@]1(O)CC[C@H]2[C@@H]3CCC4=CC(=O)[C@H](C)C[C@]4(C)[C@H]3[C@@H](O)C[C@@]21C,> 100,> 100,> 100,> 100,> 100,> 100,> 100,> 100,> 100,> 100,–,–,–,–,–,–,–,–,–
COc1ccc(/C=C2\OC(=O)C(Cl)=C2c2ccc(OC)cc2)cc1,> 100,> 100,> 100,> 100,> 100,–,–,> 100,> 100,> 100,–,–,–,–,–,–,–,–,–
O=S(=O)([O-])[O-].[Fe+2].c1ccc(/C(=N\Nc2ccccn2)c2ccccn2)cc1,4.39,5.74,11.2,4.66,8.82,7.07,8.68,2.15,10.7,22.7,–,–,–,–,–,–,–,–,–
O=C(NO)c1ccc([N+](=O)[O-])cc1,> 100,> 100,> 100,> 100,> 100,–,> 100,94,> 100,> 100,–,–,–,–,–,–,–,–,–
COc1ccc2c(c1)CC[C@@H]1[C@@H]2CC[C@]2(C)C(=O)C3(CCCCC3)C[C@@H]12,> 100,> 100,> 100,> 100,> 100,–,> 100,> 100,–,> 100,44.8,> 100,> 100,–,> 100,> 100,> 100,> 100,79.5
